Assay results reported in US20020128231A1 (priority 2000, published 2002).

How the values were obtained:
[1] = system: MDR1-expressing NIH 3T3 cells; test: Cytotoxicity (MTT) assay: modulation of drug cytotoxicity in multidrug resistant cells; settings: compound 5 μM; 50 nM doxorubicin; 72 hours; MTT
Procedure: Cytotoxicity assays were performed with many of the compounds of Formula I to verify their usefulness as inhibitors of P-gp.
Parental NIH3T3 Swiss mouse embryo cell line was obtained from American Type Culture Collection and was grown in Dulbecco's Modified Eagles Medium supplemented with 4.5 g/L glucose, 10% fetal bovine serum, 2 mM L-glutamine, and 0.01 mg/ml gentamicin. […] All cells were maintained in a humidified atmosphere with 5% CO2 at 37° C.
Parental and MDR1-expressing NIH 3T3 cells were plated at a density of 2.5-3.0×10^3 cells/well in 96-well microtiter plates and were exposed to 50 nM of doxoriubicin, 7.5 nM vinblastine, 75 nM colchicine or 300 nM paclitaxel for 72 hours. Cell viability was determined with the colorimetric MTT (3-(4,5-dimethylthiazol-2-yl)-2,5-diphenyl tetrazolium) assay as previously described (Mosmann T., J. Immunol. Methods, 65: 55-63 (1983); Hansen M. B. et al., J. Immunol. Methods, 119: 203-210 (1989)) and the absorbance was measured at 570 nm.

[2] = target: P-glycoprotein (Homo sapiens, UniProt P08183); test: Rhodamine 123 transport assay across HCT-8 cell monolayers; settings: compound 10 μM; Rh123 15 μM; HCT-8 cells
Sequence of P-glycoprotein (P08183 whole entry): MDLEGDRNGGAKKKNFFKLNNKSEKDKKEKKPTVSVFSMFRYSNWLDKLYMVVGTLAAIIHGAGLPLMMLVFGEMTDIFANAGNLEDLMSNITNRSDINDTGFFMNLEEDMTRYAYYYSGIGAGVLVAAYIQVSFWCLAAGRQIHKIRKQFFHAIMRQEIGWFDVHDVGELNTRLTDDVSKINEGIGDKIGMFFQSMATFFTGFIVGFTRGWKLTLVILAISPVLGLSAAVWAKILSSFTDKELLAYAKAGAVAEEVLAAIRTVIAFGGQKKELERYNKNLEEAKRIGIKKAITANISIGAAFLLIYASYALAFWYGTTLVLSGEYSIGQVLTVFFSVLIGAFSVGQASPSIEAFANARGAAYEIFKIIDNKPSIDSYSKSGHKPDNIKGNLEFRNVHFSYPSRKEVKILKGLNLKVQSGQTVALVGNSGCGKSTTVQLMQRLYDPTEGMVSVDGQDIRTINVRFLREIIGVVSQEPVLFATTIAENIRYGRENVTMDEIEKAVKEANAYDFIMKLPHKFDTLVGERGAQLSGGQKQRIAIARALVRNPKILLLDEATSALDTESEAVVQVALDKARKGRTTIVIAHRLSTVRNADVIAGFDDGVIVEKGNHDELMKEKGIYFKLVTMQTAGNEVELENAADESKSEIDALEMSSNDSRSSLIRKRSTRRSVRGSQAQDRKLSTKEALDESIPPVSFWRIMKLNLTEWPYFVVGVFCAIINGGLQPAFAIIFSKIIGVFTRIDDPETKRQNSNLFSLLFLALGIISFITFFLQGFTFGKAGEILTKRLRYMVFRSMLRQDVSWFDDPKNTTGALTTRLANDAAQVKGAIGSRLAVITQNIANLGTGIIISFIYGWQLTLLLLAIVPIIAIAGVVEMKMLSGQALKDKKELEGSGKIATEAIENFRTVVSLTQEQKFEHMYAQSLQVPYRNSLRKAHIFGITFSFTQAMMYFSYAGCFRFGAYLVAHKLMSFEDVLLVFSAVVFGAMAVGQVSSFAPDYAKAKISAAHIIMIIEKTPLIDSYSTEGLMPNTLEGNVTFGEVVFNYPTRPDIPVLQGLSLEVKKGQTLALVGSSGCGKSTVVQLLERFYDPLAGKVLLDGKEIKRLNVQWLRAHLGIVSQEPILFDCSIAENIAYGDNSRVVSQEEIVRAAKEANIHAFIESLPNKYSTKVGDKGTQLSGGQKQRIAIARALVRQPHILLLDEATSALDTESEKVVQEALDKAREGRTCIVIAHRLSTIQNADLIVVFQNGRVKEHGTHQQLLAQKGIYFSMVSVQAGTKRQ

% Inhibition of R123 Transport [2]: 93.0%
Structure (SMILES): COc1ccc(C2c3cc(OC)c(OC)cc3C(CCNC(=O)c3ccccc3OC)C2CNC(=O)c2ccccc2OC)cc1OC (centres unmarked) [AV-265]
Modulation of Drug Resistance (percentage increase in doxorubicin cytotoxicity in the presence of the compounds versus in their absence) [1]: −0.2%
